Reference: US20260226493A1, “HERBICIDE RESISTANT PLANTS” (SYNGENTA CROP PROTECTION AG, priority 2023, published 2026)

Columns and labels:
[1] = test system: D4586 (Zea mays BIO3-BIO1 C372D) containing tobacco plants; assay: Visual herbicide damage score on transgenic tobacco D4586 (pCMP ZmBioDA C372D); assay type: in vivo; conditions: 600 gai/ha; 7 DAT; each table row is one D4586 transgenic plant
Source text: Populations of transgenic tobacco comprising 20-30 transgenic events per plant transformation constructs were generated as described in Example 1. These lines were clonally propagated and 1 clone per event was sprayed with 600 g ai/ha compound L or A+0.2% Genapol X080 with a spray volume of 200 L/Ha (“g ai/ha” refers to grams of active compound per hectare).
Herbicidal damage was visually assessed across the population and a herbicide damage score given at 7, 14 and 21 days. A score of 0 indicates no visible damage or stunting whereas a score of 100 indicates a complete death of the plant. 20 transgenic events (i.e. individual transgenic plants) from each GM tobacco line were transplanted to soil 1 week prior to spraying with BIO3-BIO1inhibiting compounds. WT tobacco was included as a control.
To determine if overexpression of variants detailed in Example 7 confer resistance to BIO3-BIO1 inhibiting compounds when expressed in plants, GM tobacco lines were produced using the methods in Example 1 and tested with BIO3-BIO1 inhibiting compounds.
Transgenic tobacco plants expressing the Arabidopsis thaliana BIO3-BIO1 variants C388D (SEQ ID NO:26), P421L(SEQ ID NO:41), F348C (SEQ ID NO:28), G700S (SEQ ID NO:39), W392S (SEQ ID NO:70) and the Zea mays BIO3-BIO1 variant C372D (SEQ ID NO:324). Populations of transgenic tobacco were sprayed and assessed as in Example 2

[2] = target: T1, Arabidopsis thaliana BIO3-BIO1 (BioDA) mutants (Arabidopsis thaliana, UniProt B0F481, Q506A); assay: BIO3-BIO1 mutant enzyme activity in the presence of herbicide, percentage inhibition (fluorometric DAPA assay); assay type: biochemical; conditions: read-out: percentage inhibition
T1 construct: with the predicted N-terminal mitochondrial transit peptide removed; 6xHis-tag (N); thrombin cleavage site (N); made in house; host or cells: E. coli BL21 (DE3) bioA
T1 sequence (B0F481 23-833 Q506A): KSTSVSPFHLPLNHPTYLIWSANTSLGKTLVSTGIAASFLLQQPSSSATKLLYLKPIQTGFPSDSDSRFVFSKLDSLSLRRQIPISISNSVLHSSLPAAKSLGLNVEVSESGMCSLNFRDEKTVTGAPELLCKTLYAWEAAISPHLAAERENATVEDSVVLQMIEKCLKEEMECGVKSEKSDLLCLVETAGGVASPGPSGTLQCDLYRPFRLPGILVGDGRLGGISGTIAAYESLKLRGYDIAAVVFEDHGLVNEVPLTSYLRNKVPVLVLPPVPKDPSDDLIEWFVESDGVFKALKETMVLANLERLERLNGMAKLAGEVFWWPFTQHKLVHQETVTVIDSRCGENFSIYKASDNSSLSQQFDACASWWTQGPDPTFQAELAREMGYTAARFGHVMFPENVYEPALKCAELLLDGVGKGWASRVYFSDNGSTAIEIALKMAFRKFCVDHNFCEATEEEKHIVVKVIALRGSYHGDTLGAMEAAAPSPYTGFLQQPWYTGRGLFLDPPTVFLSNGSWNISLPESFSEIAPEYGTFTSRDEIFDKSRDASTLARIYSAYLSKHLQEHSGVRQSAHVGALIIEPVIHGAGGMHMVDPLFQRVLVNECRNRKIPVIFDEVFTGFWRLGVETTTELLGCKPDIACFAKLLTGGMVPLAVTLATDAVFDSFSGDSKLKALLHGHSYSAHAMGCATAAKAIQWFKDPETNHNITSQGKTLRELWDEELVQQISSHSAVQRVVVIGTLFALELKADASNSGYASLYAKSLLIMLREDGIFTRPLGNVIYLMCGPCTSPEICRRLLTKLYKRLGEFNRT
How it was run: (§1)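 Percentage inhibition compares activity at one of three herbicide concentrations against DMSO, from o-phthalaldehyde-derivatised DAPA fluorescence (ex 410, em 470 nm). Purified N-His BIO3-BIO1 variants (50 nM, E. coli-expressed) saw herbicide 10 min at 20 °C in pH 8.6 EPPS buffer, then 20 μM KAPA plus 100 μM spermidine for 75 min at 20 °C.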

[3] = target: T2, Arabidopsis thaliana BIO3-BIO1 (BioDA) mutants (Arabidopsis thaliana, UniProt B0F481, A507K); assay: as above; assay type: biochemical; conditions: read-out: percentage inhibition
T2 construct: with the predicted N-terminal mitochondrial transit peptide removed; 6xHis-tag (N); thrombin cleavage site (N); made in house; host or cells: E. coli BL21 (DE3) bioA
T2 sequence (B0F481 23-833 A507K): as the sequence (B0F481 23-833 Q506A) above, with A484Q, A485K counted along it
How it was run: as §1

[4] = target: T3, Arabidopsis thaliana BIO3-BIO1 (BioDA) mutants (Arabidopsis thaliana, UniProt B0F481, DEL508-508); assay: as above; assay type: biochemical; conditions: read-out: percentage inhibition
T3 construct: with the predicted N-terminal mitochondrial transit peptide removed; 6xHis-tag (N); thrombin cleavage site (N); made in house; host or cells: E. coli BL21 (DE3) bioA
T3 sequence (B0F481 other isoform, or with tags, fused parts or gaps DEL508-508): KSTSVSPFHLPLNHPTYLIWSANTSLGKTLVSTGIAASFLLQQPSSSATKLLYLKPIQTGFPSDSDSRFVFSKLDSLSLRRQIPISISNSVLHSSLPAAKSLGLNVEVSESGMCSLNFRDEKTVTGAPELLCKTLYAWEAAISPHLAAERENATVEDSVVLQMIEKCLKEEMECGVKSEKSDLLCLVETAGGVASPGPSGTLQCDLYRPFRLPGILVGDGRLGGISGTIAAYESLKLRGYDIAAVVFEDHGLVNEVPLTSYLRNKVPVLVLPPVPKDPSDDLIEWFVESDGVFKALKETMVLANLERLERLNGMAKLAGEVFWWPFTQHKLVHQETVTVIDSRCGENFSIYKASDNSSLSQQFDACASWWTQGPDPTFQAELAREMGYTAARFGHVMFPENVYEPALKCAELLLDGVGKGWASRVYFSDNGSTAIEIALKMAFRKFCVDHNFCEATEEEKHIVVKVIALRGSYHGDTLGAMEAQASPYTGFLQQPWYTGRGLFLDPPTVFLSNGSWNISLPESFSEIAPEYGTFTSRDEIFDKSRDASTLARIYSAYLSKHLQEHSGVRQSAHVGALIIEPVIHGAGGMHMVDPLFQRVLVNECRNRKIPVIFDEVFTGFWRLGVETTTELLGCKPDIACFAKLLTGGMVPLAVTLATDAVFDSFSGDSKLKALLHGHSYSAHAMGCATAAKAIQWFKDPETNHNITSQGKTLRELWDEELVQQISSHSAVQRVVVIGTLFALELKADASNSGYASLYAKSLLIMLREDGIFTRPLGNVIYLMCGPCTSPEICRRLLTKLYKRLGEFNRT
How it was run: as §1

[5] = target: T4, Arabidopsis thaliana BIO3-BIO1 (BioDA) mutants (Arabidopsis thaliana, UniProt B0F481, A507S); assay: as above; assay type: biochemical; conditions: read-out: percentage inhibition
T4 construct: with the predicted N-terminal mitochondrial transit peptide removed; 6xHis-tag (N); thrombin cleavage site (N); made in house; host or cells: E. coli BL21 (DE3) bioA
T4 sequence (B0F481 23-833 A507S): as the sequence (B0F481 23-833 Q506A) above, with A484Q, A485S counted along it
How it was run: as §1

Compound	percentage of damage [1] [%]	inhibition at 1 µM [2] [%]	inhibition at 1 µM [3] [%]	inhibition at 1 µM [4] [%]	inhibition at 1 µM [5] [%]
CCn1c(Cn2ccc(C(F)(F)F)n2)cc(=O)c(C(=O)O)c1-c1ccc(Cl)c(Cl)c1 [Compound L, 2-(3,4-dichlorophenyl)-1-ethyl-4-oxo-6-[[3-(trifluoromethyl)pyrazol-1-yl]methyl]pyridine-3-carboxylic acid]	10				
CCOC(=O)c1nn(-c2ccc3c(c2)OC(F)(F)C(F)(F)O3)c2cccc(C(C)=O)c2c1=O [Compound A, ethyl 5-acetyl-4-oxo-1-(2,2,3,3-tetrafluoro-1,4-benzodioxin-6-yl)cinnoline-3-carboxylate]		0	81	22	63
